Test [1] concerns the target T1, Parathyroid hormone/parathyroid hormone-related peptide receptor (Homo sapiens) (UniProt Q03431).
T1 sequence (whole entry): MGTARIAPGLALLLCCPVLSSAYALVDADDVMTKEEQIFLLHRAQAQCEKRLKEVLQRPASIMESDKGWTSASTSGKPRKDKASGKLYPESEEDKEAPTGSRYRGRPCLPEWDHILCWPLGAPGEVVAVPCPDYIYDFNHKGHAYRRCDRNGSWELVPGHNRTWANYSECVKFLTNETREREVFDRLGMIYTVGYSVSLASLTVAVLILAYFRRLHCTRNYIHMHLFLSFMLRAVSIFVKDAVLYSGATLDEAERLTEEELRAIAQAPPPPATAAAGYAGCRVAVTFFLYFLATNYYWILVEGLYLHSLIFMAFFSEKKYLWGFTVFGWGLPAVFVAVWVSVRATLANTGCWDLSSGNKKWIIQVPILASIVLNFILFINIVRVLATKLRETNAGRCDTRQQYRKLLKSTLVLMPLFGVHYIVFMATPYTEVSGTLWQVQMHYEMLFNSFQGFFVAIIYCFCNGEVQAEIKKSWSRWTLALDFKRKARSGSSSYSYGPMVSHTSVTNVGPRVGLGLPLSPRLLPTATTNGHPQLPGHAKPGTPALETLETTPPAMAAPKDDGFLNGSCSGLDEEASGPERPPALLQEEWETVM
Briefly: Agonist activity at human PTH1 receptor expressed in human GP2.3 cells assessed as induction of cAMP after 12 to 20 mins by luciferase reporter gene assay relative to PTH(1 to 34 residues)-NH2. In kind it is functional, cell-based.

Test [2] concerns the target T2, Parathyroid hormone/parathyroid hormone-related peptide receptor (Homo sapiens, UniProt Q03431).
T2 sequence (Q03431 whole entry): T1 sequence (whole entry)
In words: Agonist activity at human PTH1 receptor expressed in human GP2.3 cells assessed as induction of cAMP after 12 to 20 mins by luciferase reporter gene assay. The format is functional, cell-based. The conditions noted are these: read-out: EC50. In general terms: A reporter such as luciferase makes a cellular process visible.

Numbered stars: 1 amine (or outer) side, 2 acyl side, 3 side chain; on linkers, the order of the positions; unused ones are H or OH. Square brackets hold non-standard residues; d marks the D form. Peptide text beside a SMILES is read from it. * marks the point of attachment. NH(1S,2S-2-CONH2-cPent) = NC(=O)[C@H]1CCC[C@@H]1N*; β3hW = N[C@H](CC(=O)O)Cc1c[nH]c2ccccc12; ACPC(1S,2S) = N[C@H]1CCC[C@@H]1C(=O)*; X1 = O=C([C@H]1CCC[C@@H]1N[*:1])[*:2]; X2 = O=C([C@H]1CNC[C@@H]1N[*:1])[*:2]; hArg = N=C(N)NCCCC[C@H](N)C(=O)O; β3hE = N[C@@H](CCC(=O)O)CC(=O)O; β3hF = N[C@H](CC(=O)O)Cc1ccccc1; β3hK = NCCCC[C@H](N)CC(=O)O; β3hM = CSCC[C@H](N)CC(=O)O; β3hD = NC(CC(=O)O)CC(=O)O; Aib = CC(C)(N)C(=O)O

Usually EC50 stands for the concentration at which the effect is half-maximal.

As to `CC[C@H](C)[C@H](NC(=O)C[C@H](CO)NC(=O)[C@H](CCCCN)NC(=O)CNC(=O)[C@H](CCCCN)NC(=O)[C@H](CC(=O)O)NC(=O)[C@H](Cc1cnc[nH]1)NC(=O)[C@H](CC(C)C)NC(=O)[C@H](CC(C)C)NC(=O)[C@H](CCC(N)=O)NC(=O)[C@H](Cc1cnc[nH]1)NC(=O)[C@H](CCC(=O)O)NC(=O)[C@H](CO)NC(=O)[C@@H](NC(=O)[C@H](C)N)C(C)C)C(=O)N[C@@H](CCC(N)=O)C(=O)N[C@@H](CC(=O)O)C(=O)N[C@H](CC(=O)N[C@@H](CCCNC(=N)N)C(=O)N[C@@H](CCCNC(=N)N)C(=O)N[C@@H](CCCNC(=N)N)C(=O)N[C@@H](CCC(=O)O)CC(=O)N[C@@H](CC(C)C)C(=O)N[C@@H](CC(C)C)C(=O)N[C@@H](CCC(=O)O)C(=O)N[C@@H](CCCCN)CC(=O)N[C@@H](CC(C)C)C(=O)N[C@@H](CC(C)C)C(=O)NC(C)(C)C(=O)N[C@@H](CCCCN)CC(=O)N[C@@H](CC(C)C)C(=O)N[C@@H](Cc1cnc[nH]1)C(=O)N[C@H](C(=O)N[C@@H](C)CC(N)=O)[C@@H](C)O)CC(C)C`, the fold change (FC) in test [1] was found to be 60.4. On to `CC[C@H](C)[C@H](NC(=O)[C@H](CCC(=O)O)NC(=O)[C@H](CO)NC(=O)[C@@H](NC(=O)[C@H]1CCC[C@@H]1N)C(C)C)C(=O)N[C@@H](CCC(N)=O)C(=O)N[C@H]1CCC[C@@H]1C(=O)N[C@@H](CCSC)C(=O)N[C@@H](Cc1cnc[nH]1)C(=O)N[C@@H](CC(N)=O)C(=O)N[C@@H](CC(C)C)C(=O)NCC(=O)N[C@@H](CCCCN)C(=O)N[C@H](CC(=O)N[C@@H](CC(C)C)C(=O)N[C@@H](CC(N)=O)C(=O)N[C@@H](CO)C(=O)N[C@@H](CCSC)CC(=O)N[C@@H](CCC(=O)O)C(=O)N[C@@H](CCCNC(=N)N)C(=O)N[C@H](C(=O)N[C@@H](CCC(=O)O)CC(=O)N[C@@H](Cc1c[nH]c2ccccc12)C(=O)N[C@@H](CC(C)C)C(=O)N[C@@H](CCCNC(=N)N)C(=O)N[C@@H](CCCCN)CC(=O)N[C@@H](CCCCN)C(=O)N[C@@H](CC(C)C)C(=O)N[C@@H](CCC(N)=O)C(=O)N[C@@H](CC(=O)O)CC(=O)N[C@H](C(=O)N[C@@H](Cc1cnc[nH]1)C(=O)N[C@@H](CC(N)=O)C(=O)N[C@H](CC(N)=O)Cc1ccccc1)C(C)C)C(C)C)Cc1c[nH]c2ccccc12` ({ACPC(1S,2S)}-VSEIQ[X1]MHNLGK[β3hW]LNS[β3hM]ERV[β3hE]WLR[β3hK]KLQ[β3hD]VHN[β3hF]-NH2), for which the EC50 in test [2] is 1.84 nM. For the same compound, in test [1], the fold change (FC) was 22.6.

As for `CC[C@H](C)[C@H](NC(=O)[C@H](CCC(=O)O)NC(=O)C(C)(C)NC(=O)[C@@H](NC(=O)[C@H]1CCC[C@@H]1N)C(C)C)C(=O)N[C@@H](CCC(N)=O)C(=O)N[C@H]1CCC[C@@H]1C(=O)N[C@@H](CCSC)C(=O)N[C@@H](Cc1cnc[nH]1)C(=O)N[C@@H](CCC(N)=O)C(=O)N[C@@H](CCCCNC(=N)N)C(=O)N[C@@H](C)C(=O)N[C@@H](CCCCN)C(=O)N[C@@H](Cc1c[nH]c2ccccc12)C(=O)N[C@@H](CC(C)C)C(=O)N[C@@H](CC(N)=O)C(=O)N[C@@H](CO)C(=O)N[C@@H](CCSC)C(=O)N[C@@H](CCCNC(=N)N)C(=O)N[C@@H](CCCNC(=N)N)C(=O)N[C@H](C(=O)N[C@@H](CCC(=O)O)C(=O)N[C@@H](Cc1c[nH]c2ccccc12)C(=O)N[C@@H](CC(C)C)C(=O)N[C@@H](CCCNC(=N)N)C(=O)N[C@@H](CCCCN)C(=O)N[C@@H](CCCCN)C(=O)N[C@@H](CC(C)C)C(=O)N[C@@H](CCC(N)=O)C(=O)N[C@@H](CC(=O)O)C(=O)N[C@H](C(=O)N[C@@H](Cc1cnc[nH]1)C(=O)N[C@@H](CC(N)=O)C(=O)N[C@@H](Cc1ccccc1)C(N)=O)C(C)C)C(C)C` ({ACPC(1S,2S)}-V[Aib]EIQ[X1]MHQ[hArg]AKWLNSMRRVEWLRKKLQDVHNF-NH2), the concentration for a half-maximal effect (EC50) in test [2] is 0.52 nM. Moreover, in test [1], the fold change (FC) was 6.3. The like results for `CSCC[C@H](NC(=O)[C@H](CO)NC(=O)[C@H](CC(N)=O)NC(=O)[C@H](CC(C)C)NC(=O)[C@H](Cc1c[nH]c2ccccc12)NC(=O)[C@H](CCCCN)NC(=O)[C@H](C)NC(=O)[C@H](CCCCNC(=N)N)NC(=O)[C@H](CCC(N)=O)NC(=O)[C@H](Cc1cnc[nH]1)NC(=O)[C@H](CCSC)NC(=O)[C@H]1CCC[C@@H]1NC(=O)[C@H](CCC(N)=O)NC(=O)[C@H]1CCC[C@@H]1NC(=O)[C@H](CCC(=O)O)NC(=O)C(C)(C)NC(=O)[C@@H](NC(=O)[C@H]1CCC[C@@H]1N)C(C)C)C(=O)N[C@@H](CCCNC(=N)N)C(=O)N[C@@H](CCCNC(=N)N)C(=O)N[C@H](C(=O)N[C@@H](CCC(=O)O)C(=O)N[C@@H](Cc1c[nH]c2ccccc12)C(=O)N[C@@H](CC(C)C)C(=O)N[C@@H](CCCNC(=N)N)C(=O)N[C@@H](CCCCN)C(=O)N[C@@H](CCCCN)C(=O)N[C@@H](CC(C)C)C(=O)N[C@@H](CCC(N)=O)C(=O)N[C@@H](CC(=O)O)C(=O)N[C@H](C(=O)N[C@@H](Cc1cnc[nH]1)C(=O)N[C@@H](CC(N)=O)C(=O)N[C@@H](Cc1ccccc1)C(N)=O)C(C)C)C(C)C` ({ACPC(1S,2S)}-V[Aib]E[X1]Q[X1]MHQ[hArg]AKWLNSMRRVEWLRKKLQDVHNF-NH2) were, in that order, 0.4 nM and 4.9. In the case of `CC[C@H](C)[C@H](NC(=O)[C@H]1CCC[C@@H]1NC(=O)[C@H](C)NC(=O)[C@H](NC(=O)[C@H](CC(C)C)NC(=O)[C@H]1CNC[C@@H]1NC(=O)[C@H](Cc1cnc[nH]1)NC(=O)[C@H](CC(C)C)NC(=O)[C@H](Cc1ccccc1)NC(=O)[C@H]1CNC[C@@H]1NC(=O)[C@H](CCCNC(=N)N)NC(=O)[C@H](CCCNC(=N)N)NC(=O)[C@H](CCCNC(=N)N)NC(=O)[C@H]1CCC[C@@H]1NC(=O)[C@H](CC(=O)O)NC(=O)[C@H](CCC(N)=O)NC(=O)[C@@H](NC(=O)[C@H]1CCC[C@@H]1NC(=O)[C@H](CCCCN)NC(=O)CNC(=O)[C@H](CCCCN)NC(=O)[C@H](CC(=O)O)NC(=O)[C@H](Cc1cnc[nH]1)NC(=O)[C@H](CC(C)C)NC(=O)[C@H](CC(C)C)NC(=O)[C@H](CCC(N)=O)NC(=O)[C@H](Cc1cnc[nH]1)NC(=O)[C@H](CCC(=O)O)NC(=O)[C@H](CO)NC(=O)[C@@H](NC(=O)[C@H](C)N)C(C)C)[C@@H](C)CC)[C@@H](C)CC)C(=O)N[C@@H](Cc1cnc[nH]1)C(=O)N[C@H](C(=O)N[C@H]1CCC[C@@H]1C(N)=O)[C@@H](C)O`, the fold change (FC) in test [1] came out at 9.4.

In the case of `CSCC[C@H](NC(=O)[C@H]1CCC[C@@H]1NC(=O)[C@H](CCC(N)=O)NC(=O)[C@H]1CCC[C@@H]1NC(=O)[C@H](CCC(=O)O)NC(=O)[C@H](CO)NC(=O)[C@@H](NC(=O)[C@H]1CCC[C@@H]1N)C(C)C)C(=O)N[C@@H](Cc1cnc[nH]1)C(=O)N[C@@H](CC(N)=O)C(=O)N[C@@H](CC(C)C)C(=O)NCC(=O)N[C@@H](CCCCN)C(=O)N[C@H]1CCC[C@@H]1C(=O)N[C@@H](CC(C)C)C(=O)N[C@@H](CC(N)=O)C(=O)N[C@@H](CO)C(=O)N[C@H]1CCC[C@@H]1C(=O)N[C@@H](CCC(=O)O)C(=O)N[C@@H](CCCNC(=N)N)C(=O)N[C@H](C(=O)N[C@H]1CNC[C@@H]1C(=O)N[C@@H](Cc1c[nH]c2ccccc12)C(=O)N[C@@H](CC(C)C)C(=O)N[C@@H](CCCNC(=N)N)C(=O)N[C@H]1CNC[C@@H]1C(=O)N[C@@H](CCCCN)C(=O)N[C@@H](CC(C)C)C(=O)N[C@@H](CCC(N)=O)C(=O)N[C@H]1CCC[C@@H]1C(=O)N[C@H](C(=O)N[C@@H](Cc1cnc[nH]1)C(=O)N[C@@H](CC(N)=O)C(=O)N[C@H]1CCC[C@@H]1C(N)=O)C(C)C)C(C)C` ({ACPC(1S,2S)}-VSE[X1]Q[X1]MHNLGK[X1]LNS[X1]ERV[X2]WLR[X2]KLQ[X1]VHN-{NH(1S,2S-2-CONH2-cPent)}), the fold change (FC) in test [1] is 234. Still for that read-out and setting: the figure for `CC[C@H](C)[C@H](NC(=O)[C@H]1CCC[C@@H]1NC(=O)[C@H](CCCCN)NC(=O)CNC(=O)[C@H](CCCCN)NC(=O)[C@H](CC(=O)O)NC(=O)[C@H](Cc1cnc[nH]1)NC(=O)[C@H](CC(C)C)NC(=O)[C@H](CC(C)C)NC(=O)[C@H](CCC(N)=O)NC(=O)[C@H](Cc1cnc[nH]1)NC(=O)[C@H](CCC(=O)O)NC(=O)[C@H](CO)NC(=O)[C@@H](NC(=O)[C@H](C)N)C(C)C)C(=O)N[C@@H](CCC(N)=O)C(=O)N[C@@H](CC(=O)O)C(=O)N[C@H]1CCC[C@@H]1C(=O)N[C@@H](CCCNC(=N)N)C(=O)N[C@@H](CCCNC(=N)N)C(=O)N[C@@H](CCCNC(=N)N)C(=O)N[C@H]1CNC[C@@H]1C(=O)N[C@@H](CC(C)C)C(=O)N[C@@H](CC(C)C)C(=O)N[C@@H](CCC(=O)O)C(=O)N[C@H]1CNC[C@@H]1C(=O)N[C@@H](CC(C)C)C(=O)N[C@@H](CC(C)C)C(=O)NC(C)(C)C(=O)N[C@H]1CCC[C@@H]1C(=O)N[C@@H](CC(C)C)C(=O)N[C@@H](Cc1cnc[nH]1)C(=O)N[C@H](C(=O)N[C@H]1CCC[C@@H]1C(N)=O)[C@@H](C)O` (H-AVSEHQLLHDKGK[X1]IQD[X1]RRR[X2]LLE[X2]LL[Aib][X1]LHT-{NH(1S,2S-2-CONH2-cPent)}) is 2.6.

For the origin of these results see ChEMBL document CHEMBL4024754, “Development of Potent, Protease-Resistant Agonists of the Parathyroid Hormone Receptor with Broad β Residue Distribution” (J Med Chem, 2017).
